# Reference: patent US8012979B2, “Compounds and their uses 707” (AstraZeneca AB, priority 2007, dated 2011)
# Counter-ions that a name gives are not always drawn.
# Target: T1, human active recombinant p38α-6His tagged (Homo sapiens, UniProt Q16539)
# T1 construct: 6His
# Test: p38 Alpha Enzyme Assay (AlphaScreen, biotinylated-ATF2 substrate)
# Type: biochemical
# Conditions: pre-incubated 4 hours at 37° C., reaction initiated with ATP; 0.5 nM enzyme; read-out: p38 pIC50 (converted)
# Description: The ability of the compounds of formula (I) to inhibit p38 kinase may be determined using the following biological assay:
# Enzyme assays were performed in polypropylene 96 well plates. The following solutions were added to each well; 10 μL of compound dilutions in assay buffer (20 mM HEPES pH 7.4, containing 20 mM magnesium acetate, 0.005% (w/v) Tween-20, 10 mM DTT) containing 1% (v/v) DMSO or assay buffer containing 1% (v/v) DMSO alone, 70 μL of assay buffer containing 36 nM substrate (biotinylated-ATF2) and 10 μL of an appropriate dilution of human active recombinant p38α-6His tagged. Depending on batch of p38, an appropriate dilution was typically a 5 nM solution to give a final enzyme concentration of 0.5 nM. At this stage, background control wells also received 50 μL of AlphaScreen quench buffer (10 mM HEPES pH 7.4 containing 100 mM EDTA, 0.2% (w/v) bovine serum albumin). The plate was covered, pre-incubated for 4 hours at 37° C. and the enzyme reaction initiated by addition of 10 μL 1 mM ATP. After incubation for a further 45 minutes at 37° C., the reaction was stopped by addition of 50 μL quench reagent and 50 μL of the quenched reaction mixture transferred to an opaque, white 96-well plate. Detection reagent, 25 μL of 10 mM HEPES pH 7.4 containing 100 mM EDTA, 0.2% (w/v) bovine serum albumin, 0.3 nM anti phosphoATF2 antibody and 25 μg/mL of ‘AlphaScreen protein A acceptor and donor beads’ (PerkinElmer Inc.), was added to all wells in a darkened room, the plate sealed and left in the dark for at least 5 hours before AlphaScreen readings were taken using a Perkin Elmer EnVision reader. Total, uninhibited activity was determined from assays performed in each assay plate. The mean control in the absence of p38 activity was subtracted from each well. Data were expressed as percent inhibition of total activity using equation 1. Percent Inhibition=100*(1−Test/Control) Eq.1 Where . . . . • Test=p38 kinase activity in the presence of compound • Control=p38 kinase activity in the absence of compound.
# pIC50 is defined as the logarithm of the reciprocal of the concentration of compound required for 50% reduction in total p38 kinase activity.
# T1 sequence (Q16539 whole entry): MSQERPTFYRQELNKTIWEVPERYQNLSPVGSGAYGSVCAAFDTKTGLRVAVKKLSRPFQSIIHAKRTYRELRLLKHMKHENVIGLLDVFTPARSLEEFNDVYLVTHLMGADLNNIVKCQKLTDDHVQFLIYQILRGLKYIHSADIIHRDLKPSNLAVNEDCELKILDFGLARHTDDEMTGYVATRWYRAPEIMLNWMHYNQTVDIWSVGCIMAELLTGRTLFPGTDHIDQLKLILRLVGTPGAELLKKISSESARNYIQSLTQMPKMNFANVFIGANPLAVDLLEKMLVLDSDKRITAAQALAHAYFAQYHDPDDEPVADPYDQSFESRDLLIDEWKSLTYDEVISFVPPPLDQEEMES
row,Compound,IC50 [nM]
1,"Cc1ccc(C(=O)NC2CC2)cc1-c1ccc2c(=O)n(CC3CC3)cc(CN3CCC(N)CC3)c2c1 [Example 66, 3-(4-((4-Aminopiperidin-1-yl)methyl)-2-(cyclopropylmethyl)-1-oxo-1,2-dihydroisoquinolin-6-yl)-N-cyclopropyl-4-methylbenzamide]",0.158
2,"Cc1c(F)cc(C(=O)NC2CC2)cc1-c1ccc2c(=O)n(CC3CC3)cc(CN3CCNC[C@@H]3C)c2c1 [Example 118, (S)—N-Cyclopropyl-3-(2-(cyclopropylmethyl)-4-((2-methylpiperazin-1-yl)methyl)-1-oxo-1,2-dihydroisoquinolin-6-yl)-5-fluoro-4-methylbenzamide]",0.251
3,Cc1c(F)cc(C(=O)NC2CC2)cc1-c1ccc2c(=O)n(Cc3ccc(S(C)(=O)=O)cc3)cc(CN3CCN(C)[C@@H](CO)C3)c2c1 [Example 115],0.1
4,"Cc1ccc(C(=O)NC2CC2)cc1-c1ccc2c(=O)n(CC3CC3)cc(CN3CCCN(CCO)CC3)c2c1 [Example 72, N-Cyclopropyl-3-(2-(cyclopropylmethyl)-4-((4-(2-hydroxyethyl)-1,4-diazepan-1-yl)methyl)-1-oxo-1,2-dihydroisoquinolin-6-yl)-4-methylbenzamide]",0.398
5,"CC[C@H]1CN(Cc2cn(CC3CC3)c(=O)c3ccc(-c4cc(C(=O)NC5CC5)cc(F)c4C)cc23)CCN1 [Example 116, (S)—N-Cyclopropyl-3-(2-(cyclopropylmethyl)-4-((3-ethylpiperazin-1-yl)methyl)-1-oxo-1,2-dihydroisoquinolin-6-yl)-5-fluoro-4-methylbenzamide]",0.501
6,"Cc1ccc(C(=O)NC2CC2)cc1-c1ccc2c(=O)n(CC3CC3)cc(C(=O)N3CC[C@H](N)C3)c2c1 [Example 43, (S)-3-(4-(3-Aminopyrrolidine-1-carbonyl)-2-(cyclopropylmethyl)-1-oxo-1,2-dihydroisoquinolin-6-yl)-N-cyclopropyl-4-methylbenzamide]",5.01
7,"Cc1c(F)cc(C(=O)NC2CC2)cc1-c1ccc2c(=O)n(CC3CC3)cc(CNCC3CCNCC3)c2c1 [Example 89, N-Cyclopropyl-3-(2-(cyclopropylmethyl)-1-oxo-4-((piperidin-4-ylmethylamino)methyl)-1,2-dihydroisoquinolin-6-yl)-5-fluoro-4-methylbenzamide]",0.794
8,"Cc1c(F)cc(C(=O)NC2CC2)cc1-c1ccc2c(=O)n(CC3CC3)cc(CN3CCN[C@@H](CO)C3)c2c1 [Example 85, (R)—N-Cyclopropyl-3-(2-(cyclopropylmethyl)-4-((3-(hydroxymethyl)piperazin-1-yl)methyl)-1-oxo-1,2-dihydroisoquinolin-6-yl)-5-fluoro-4-methylbenzamide]",0.0398
9,"CCN1CCC(CNCc2cn(CC3CC3)c(=O)c3ccc(-c4cc(C(=O)NC5CC5)cc(F)c4C)cc23)CC1 [Example 91, N-Cyclopropyl-3-(2-(cyclopropylmethyl)-4-(((1-ethylpiperidin-4-yl)methylamino)methyl)-1-oxo-1,2-dihydroisoquinolin-6-yl)-5-fluoro-4-methylbenzamide]",7.94
10,"Cc1c(F)cc(C(=O)NC2CC2)cc1-c1ccc2c(=O)n(CC3CC3)cc(CN3CCNC[C@H]3CO)c2c1 [Example 108, (S)—N-Cyclopropyl-3-(2-(cyclopropylmethyl)-4-((2-(hydroxymethyl)piperazin-1-yl)methyl)-1-oxo-1,2-dihydroisoquinolin-6-yl)-5-fluoro-4-methylbenzamide]",0.0631
11,"Cc1ccc(C(=O)NC2CC2)cc1-c1ccc2c(=O)n(CC3CC3)cc(CN3CCC(N4CCCCC4)CC3)c2c1 [Example 62, 3-(4-(1,4′-Bipiperidin-1′-ylmethyl)-2-(cyclopropylmethyl)-1-oxo-1,2-dihydroisoquinolin-6-yl)-N-cyclopropyl-4-methylbenzamide]",5.01
12,"Cc1ccc(C(=O)NC2CC2)cc1-c1ccc2c(=O)n(CC3CC3)cc(C(=O)NCCCN3CCCC3)c2c1 [Example 44, 6-(5-(Cyclopropylcarbamoyl)-2-methylphenyl)-2-(cyclopropylmethyl)-1-oxo-N-(3-(pyrrolidin-1-yl)propyl)-1,2-dihydroisoquinoline-4-carboxamide]",25.1
13,"CNC1CCN(Cc2cn(CC3CC3)c(=O)c3ccc(-c4cc(C(=O)NC5CC5)cc(F)c4C)cc23)CC1 [Example 81, N-Cyclopropyl-3-(2-(cyclopropylmethyl)-4-((4-(methylamino)piperidin-1-yl)methyl)-1-oxo-1,2-dihydroisoquinolin-6-yl)-5-fluoro-4-methylbenzamide]",0.1
14,"Cc1ccc(C(=O)NC2CC2)cc1-c1ccc2c(=O)n(CC3CC3)cc(CN3CCN[C@@H](C)C3)c2c1 [Example 63, (S)—N-Cyclopropyl-3-(2-(cyclopropylmethyl)-4-((3-methylpiperazin-1-yl)methyl)-1-oxo-1,2-dihydroisoquinolin-6-yl)-4-methylbenzamide]",1

# Second part, the molecule after the results:
row,IC50 [nM],Compound
1,10,"Cc1ccc(C(=O)NC2CC2)cc1-c1ccc2c(=O)n(Cc3ccc(CN(C)C)cc3)c(C)cc2c1 [Example 96, N-Cyclopropyl-3-(2-(4-((dimethylamino)methyl)benzyl)-3-methyl-1-oxo-1,2-dihydroisoquinolin-6-yl)-4-methylbenzamide]"
2,2.51,"CNCCOc1cccc(Cn2ccc3cc(-c4cc(C(=O)NC5CC5)ccc4C)ccc3c2=O)c1 [Example 34, N-Cyclopropyl-4-methyl-3-(2-{3-[2-(methylamino)ethoxy]benzyl}-1-oxo-1,2-dihydroisoquinolin-6-yl)benzamide]"
3,25.1,"Cc1ccc(C(=O)NC2CC2)cc1-c1ccc2c(=O)n(Cc3ccncc3)cc(C(=O)N3CCC(N4CCCC4)CC3)c2c1 [Example 54, N-Cyclopropyl-4-methyl-3-(1-oxo-2-(pyridin-4-ylmethyl)-4-(4-(pyrrolidin-1-yl)piperidine-1-carbonyl)-1,2-dihydroisoquinolin-6-yl)benzamide]"
4,0.398,"Cc1ccc(C(=O)NC2CC2)cc1-c1ccc2c(=O)n(Cc3ccc(C4=CCNCC4)cc3)ccc2c1 [Example 7, N-Cyclopropyl-4-methyl-3-[1-oxo-2-{4-(1,2,3,6-tetrahydro-pyridin-4-yl)-benzyl}-1,2-dihydro-isoquinolin-6-yl]-benzamide, hydrochloride]"
5,3.16,"Cc1ccc(C(=O)NC2CC2)cc1-c1ccc2c(=O)n(CC3CC3)cc(COCCN(C)C)c2c1 [Example 101, N-Cyclopropyl-3-(2-(cyclopropylmethyl)-4-((2-(dimethylamino)ethoxy)methyl)-1-oxo-1,2-dihydroisoquinolin-6-yl)-4-methylbenzamide]"
6,0.794,"Cc1ccc(C(=O)NC2CC2)cc1-c1ccc2c(=O)n(Cc3ccccc3)ccc2c1 [Example 1, 3-(2-Benzyl-1-oxo-1,2-dihydro-isoquinolin-6-yl)-N-cyclopropyl-4-methyl-benzamide]"
7,2,"Cc1ccc(C(=O)NC2CC2)cc1-c1ccc2c(=O)n(Cc3cccc(OCCNCCO)c3)ccc2c1 [Example 35, N-Cyclopropyl-3-[2-(3-{2-[(2-hydroxyethyl)amino]ethoxy}benzyl)-1-oxo-1,2-dihydroisoquinolin-6-yl]-4-methylbenzamide]"
8,3.98,"Cc1ccc(C(=O)NC2CC2)cc1-c1ccc2c(=O)n(CC3CCC3)ccc2c1 [Example 124, 3-(2-(Cyclobutylmethyl)-1-oxo-1,2-dihydroisoquinolin-6-yl)-N-cyclopropyl-4-methylbenzamide]"
9,2,"CNCCN(C)C(=O)c1ccc(Cn2ccc3cc(-c4cc(C(=O)NC5CC5)ccc4C)ccc3c2=O)cc1 [Example 23, N-Cyclopropyl-4-methyl-3-(2-(4-(methyl(2-(methylamino)ethyl)carbamoyl)benzyl)-1-oxo-1,2-dihydroisoquinolin-6-yl)benzamide]"
10,1,"Cc1ccc(C(=O)NC2CC2)cc1-c1ccc2c(=O)n(Cc3ccc(OCCN(C)C)nc3)ccc2c1 [Example 30, N-Cyclopropyl-3-(2-((6-(2-(dimethylamino)ethoxy)pyridin-3-yl)methyl)-1-oxo-1,2-dihydroisoquinolin-6-yl)-4-methylbenzamide]"
11,0.398,"Cc1c(F)cc(C(=O)NC2CC2)cc1-c1ccc2c(=O)n(Cc3ccccc3)cc(C(=O)NCCN(C)C)c2c1 [Example 60, 2-Benzyl-6-(5-(cyclopropylcarbamoyl)-3-fluoro-2-methylphenyl)-N-(2-(dimethylamino)ethyl)-1-oxo-1,2-dihydroisoquinoline-4-carboxamide]"
12,2,"Cc1ccc(C(=O)NC2CC2)cc1-c1ccc2c(=O)n(Cc3cccc(OCCCN(C)C)c3)ccc2c1 [Example 10, N-Cyclopropyl-3-{2-[3-(3-dimethylamino-propoxy)-benzyl]-1-oxo-1,2-dihydro-isoquinolin-6-yl}-4-methyl-benzamide]"
